# Results reported in a melting point compilation (Tetko et al.; mined from patent text by program, amines drawn as free bases though some values may be those of a salt).
row,melting point [°C],SMILES
1,248 to 250,O=C1OC(=O)c2c1ccc1sc3ccccc3c21
2,193 to 195,CCOC(=O)c1cc2c(nc(C)n2C)c(O)c1CCC(O)c1ccccc1 (stereo not drawn)
3,243 to 245,CCOC(=O)Nc1cc(N2CCN(c3ccc([N+](=O)[O-])cc3)CC2)ccn1
4,177 to 178,Cc1cc(C)cc(CNC(=O)C(Cc2c[nH]c3ccccc23)NC(=O)c2ccccc2)c1 (stereo not drawn)
5,230 to 232,COc1cc(C(=O)N2CCCCc3cc(Cl)ccc32)ccc1NC(=O)N(C)C
6,249,COC(=O)c1ccc(Cn2c(=O)c3cc(C#CCc4ccc(OC)cc4)ccc3n3cnnc23)cc1
7,140 to 145,O=C(c1cccs1)c1cnn2c(-c3ccc(F)c(-c4ccc(CO)cc4)c3)ccnc12
8,49.5 to 50,O=Cc1ccc(OCCBr)cc1
9,118 to 120,CCCCCCCNC(=O)c1cnc2cccc(C)n2c1=O
10,125,C#Cc1ccc2c(c1)Cc1cc(C#C)ccc1-2
11,111 to 113,CCCCN(CC(=O)N1c2ccccc2N(C)C(=O)c2cnc(-c3ccccc3)nc21)C(C)(C)C
12,185 to 188,NC(=O)c1cccc(CCN2CC=C(c3c[nH]c(-c4ccc(F)cc4)c3-c3ccncc3)CC2)c1
13,170 to 172,COc1ccc2nc(-c3cc(F)c(OC)c(F)c3)cc(Br)c2c1
14,232 to 236,COc1cc(OC)cc(-n2c(-c3ccccc3)cc(=O)c(C)c2-c2ccccc2)c1
15,134 to 135,CCC(C)c1nn(-c2ccc(C(F)(F)F)cn2)cc1CCCOc1c(C)cccc1CC(=O)O (stereo not drawn)
16,78 to 80,COCCO[C@H]1c2ccn3c(C)c(C)nc3c2N[C@H](c2ccccc2)[C@H]1OC(=O)c1ccccc1
17,96 to 98,Cc1ccc(S(=O)(=O)NCCCCOc2ccc(-n3ccnc3)cc2)cc1
18,> 300,NCCCOc1ccc(-c2ncc3c(=O)[nH][nH]c(=O)c3c2O)cc1
19,266 to 267,Cc1cc(Br)cc(C(=O)c2[nH]c(=O)[nH]c(=O)c2C(C)C)c1
20,279 to 281,Cn1c(COc2ccc(C=C3SC(=O)NC3=O)cc2)nc2cccnc21
21,169 to 170,CS(=O)(=O)c1ccc(-n2nc(C(F)(F)F)cc2-c2ccc(-c3cncs3)cc2)cc1

# Second part, the compound before the results:
row,SMILES,melting point [°C]
1,COC(=O)C(CN(c1ccccc1)c1ccccn1)N(C(=O)OC(C)(C)C)C(=O)OC(C)(C)C (stereo not drawn),103
2,c1ccc2c(c1)-c1ccccc1C21c2ccccc2-c2ccccc21,198
3,CC(=O)NC[C@H]1CN(c2ccc(N3CCC(c4noc(C)n4)CC3)c(F)c2)C(=O)O1,136 to 138
4,C1CC1Nc1nc(NC2CC2)nc(NC2CC2)n1,75 to 77
5,Cc1cc(C(C)NC(=O)NO)c(C)s1 (stereo not drawn),124 to 126
6,CC(=O)NC1Cc2ccc(C(=O)CCCCCl)cc2C1 (stereo not drawn),106 to 108
7,CCCC=C(c1ccccc1N1CCCCC1)C(C(N)=O)c1ccc(C(=O)OCC)cc1 (stereo not drawn),94 to 97
8,COC(=O)CNS(=O)(=O)c1ccc(N2CCC(NC[C@H](O)c3ccc(O)c(NS(C)(=O)=O)c3)CC2)cc1,123 to 125
9,O=C(CCNC(=O)NOCCCl)NCC1CC1,105 to 106
10,CC(C)(C)OC(=O)C1CCCN(C(=O)OCc2ccccc2)N1C(=O)C(Br)CCBr (stereo not drawn),81 to 82
11,Cc1cnc(-c2nn(C)c(OC(F)F)c2Cl)c(F)c1,41 to 42
12,CCOP(=O)(C=Cc1ccc([N+](=O)[O-])cc1)OCC,95 to 98
13,C=Cn1cc(C(=O)OCC)c(=O)c2cc(F)c(N3CCN(C)CC3)cc21,186 to 188
14,COC(=O)c1cccc(Cn2c(C(=O)Nc3nc(-c4cc(OC)c(C)cc4OC)c(CCC4CCCCC4)s3)cc3cc(C)cc(C)c32)c1,219 to 220
15,CCCN1CC(C)=C(C)C2=C1N1CN(OC)C=C1C=N2,91 to 92.5
16,O=Cc1ccc2c(c1)C1(c3ccccc3-2)c2ccccc2-c2ccc(CO)cc21 (stereo not drawn),262 to 263
17,O=C(OC1CCCCC1)c1ncn2c1[C@@H]1CCCN1C(=O)c1c-2ccc(F)c1Cl,163 to 166
